According to patent US20250171457A1, “NITROGEN-CONTAINING HETEROCYCLIC COMPOUND HAVING NRF2 ACTIVATION EFFECT” (CHUGAI SEIYAKU KABUSHIKI KAISHA, priority 2022, published 2025):

Each compound was assayed on Nrf2 transcriptional activity (pARE-Luc reporter) in HepG2 cells (assay: In vitro Nrf2 transcriptional activity measurement by ARE-dependent reporter assay in HepG2 cell). Conditions: Homo sapiens; HepG2 cells transfected with pARE-Luc, 4 hours at 37° C.; luciferase activity of Example 1-54 or Example 17-23 at 3.75 μM defined as 100%.
Format: cell-based, human
In short: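 Luminescence readout (Bright-Glo) after 4 h, 37° C compound exposure of HepG2 cells carrying the ARE-luciferase vector pGL4.37. Each well converted to % response versus reference compound at 3.75 μM, and EC50 derived from dose-response curves.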

**Q.** With `C[C@H]1CN(C2COC2)CCN1c1cc(Cl)c(C(=O)N2COc3c(cccc3-c3cc(N4C5CCC4COC5)c(C(=O)O)cc3F)C2)c(Cl)c1` [Compound 9-19, 4-[3-[2,6-Dichloro-4-[(2S)-2-methyl-4-(oxetan-3-yl)piperazin-1-yl]benzoyl]-2,4-dihydro-1,3-benzoxazin-8-yl]-5-fluoro-2-(3-oxa-8-azabicyclo[3.2.1]octan-8-yl)benzoic acid] as the compound, how does the EC50 read?
**A.** 5.9 nM

**Q.** Which EC50 does the source give for `O=C(O)c1cc(F)c(-c2cccc3c2OCN(C(=O)c2c(Cl)cc(N4CC5CCC(C4)N5C4CC4)cc2Cl)C3)cc1N1C2CCC1COC2` [Compound 9-20, 4-[3-[2,6-Dichloro-4-(8-cyclopropyl-3,8-diazabicyclo[3.2.1]octan-3-yl)benzoyl]-2,4-dihydro-1,3-benzoxazin-8-yl]-5-fluoro-2-(3-oxa-8-azabicyclo[3.2.1]octan-8-yl)benzoic acid] here?
**A.** 4.6 nM

**Q.** Which EC50 does the source give for `O=C(O)c1cc(F)c(-c2cccc3c2OCN(C(=O)c2c(Cl)cc(N4C5CC4CN(C4CC(F)(F)C4)C5)cc2Cl)C3)cc1N1C2CCC1COC2` [Compound 9-21, 4-[3-[2,6-Dichloro-4-[3-(3,3-difluorocyclobutyl)-3,6-diazabicyclo[3.1.1]heptan-6-yl]benzoyl]-2,4-dihydro-1,3-benzoxazin-8-yl]-5-fluoro-2-(3-oxa-8-azabicyclo[3.2.1]octan-8-yl)benzoic acid] here?
**A.** 6 nM

**Q.** `CCN1CCN(c2cc(Cl)c(C(=O)N3COc4c(cccc4-c4cc(N5C6CCC5COC6)c(C(=O)O)cc4F)C3)c(Cl)c2)[C@H](C)C1` [Compound 9-22, 4-[3-[2,6-Dichloro-4-[(2R)-4-ethyl-2-methylpiperazin-1-yl]benzoyl]-2,4-dihydro-1,3-benzoxazin-8-yl]-5-fluoro-2-(3-oxa-8-azabicyclo[3.2.1]octan-8-yl)benzoic acid] was tested. Which EC50 did it give?
**A.** 0.9 nM

**Q.** With `CN1CCN(c2cc(Cl)c(C(=O)N3COc4c(cccc4-c4cc(N5C6CCC5COC6)c(C(=O)O)cc4F)C3)c(Cl)c2)CC1C(F)(F)F` (centres unmarked) [Compound 9-23, 4-[3-[2,6-Dichloro-4-[4-methyl-3-(trifluoromethyl)piperazin-1-yl]benzoyl]-2,4-dihydro-1,3-benzoxazin-8-yl]-5-fluoro-2-(3-oxa-8-azabicyclo[3.2.1]octan-8-yl)benzoic acid] as the compound, how does the EC50 read?
**A.** 3.1 nM

**Q.** For `CC1C(C)N(c2cc(Cl)c(C(=O)N3COc4c(cccc4-c4cc(N5C6CCC5COC6)c(C(=O)O)cc4F)C3)c(Cl)c2)CCN1C` (centres unmarked) [Compound 9-24, 4-[3-[2,6-Dichloro-4-(2,3,4-trimethylpiperazin-1-yl)benzoyl]-2,4-dihydro-1,3-benzoxazin-8-yl]-5-fluoro-2-(3-oxa-8-azabicyclo[3.2.1]octan-8-yl)benzoic acid], which EC50 is on record?
**A.** 2.5 nM

**Q.** With `C[C@@H]1CNCCN1c1cc(Cl)c(C(=O)N2COc3c(cccc3-c3cc(N4C5CCC4COC5)c(C(=O)O)cc3F)C2)c(Cl)c1` [Compound 9-25, 4-[3-[2,6-Dichloro-4-[(2R)-2-methylpiperazin-1-yl]benzoyl]-2,4-dihydro-1,3-benzoxazin-8-yl]-5-fluoro-2-(3-oxa-8-azabicyclo[3.2.1]octan-8-yl)benzoic acid] as the compound, how does the EC50 read?
**A.** 8.8 nM

**Q.** Which EC50 does the source give for `CN1CCC2(C1)CN(c1cc(Cl)c(C(=O)N3COc4c(cccc4-c4cc(N5C6CCC5COC6)c(C(=O)O)cc4F)C3)c(Cl)c1)C2` [Compound 10-1, 4-[3-[2,6-Dichloro-4-(7-methyl-2,7-diazaspiro[3.4]octan-2-yl)benzoyl]-2,4-dihydro-1,3-benzoxazin-8-yl]-5-fluoro-2-(3-oxa-8-azabicyclo[3.2.1]octan-8-yl)benzoic acid] here?
**A.** 6.5 nM

**Q.** For `O=C(O)c1cc(F)c(-c2cccc3c2OCN(C(=O)c2c(Cl)cc(N4CC5(CCN(C6COC6)C5)C4)cc2Cl)C3)cc1N1C2CCC1COC2` [Compound 10-2, 4-[3-[2,6-Dichloro-4-[7-(oxetan-3-yl)-2,7-diazaspiro[3.4]octan-2-yl]benzoyl]-2,4-dihydro-1,3-benzoxazin-8-yl]-5-fluoro-2-(3-oxa-8-azabicyclo[3.2.1]octan-8-yl)benzoic acid], which EC50 is on record?
**A.** 5.2 nM

**Q.** How did the EC50 turn out when `C[C@@H]1CN(c2cc(Cl)c(C(=O)N3COc4c(cccc4-c4cc(N5C6CCC5COC6)c(C(=O)O)cc4F)C3)c(Cl)c2)CCN1C` [Compound 10-3, 4-[3-[2,6-Dichloro-4-[(3R)-3,4-dimethylpiperazin-1-yl]benzoyl]-2,4-dihydro-1,3-benzoxazin-8-yl]-5-fluoro-2-(3-oxa-8-azabicyclo[3.2.1]octan-8-yl)benzoic acid] was run?
**A.** 1.5 nM

**Q.** How did the EC50 turn out when `C[C@@H]1CN(c2cc(Cl)c(C(=O)N3COc4c(cccc4-c4cc(N5C6CCC5COC6)c(C(=O)O)cc4F)C3)c(Cl)c2)C[C@H](C)N1C` [Compound 10-4] was run?
**A.** 4.8 nM

**Q.** `C[C@H]1CN(c2cc(Cl)c(C(=O)N3COc4c(cccc4-c4cc(N5C6CCC5COC6)c(C(=O)O)cc4F)C3)c(Cl)c2)CCN1C` [Compound 10-5, 4-[3-[2,6-Dichloro-4-[(3S)-3,4-dimethylpiperazin-1-yl]benzoyl]-2,4-dihydro-1,3-benzoxazin-8-yl]-5-fluoro-2-(3-oxa-8-azabicyclo[3.2.1]octan-8-yl)benzoic acid] was tested. Which EC50 did it give?
**A.** 4.3 nM

**Q.** Which EC50 does the source give for `CN1CCN(c2cc(Cl)c(C(=O)N3COc4c(cccc4-c4cc(N5C6CCC5COC6)c(C(=O)O)cc4F)C3)c(Cl)c2)CC1(C)C` [Compound 10-6, 4-[3-[2,6-Dichloro-4-(3,3,4-trimethylpiperazin-1-yl)benzoyl]-2,4-dihydro-1,3-benzoxazin-8-yl]-5-fluoro-2-(3-oxa-8-azabicyclo[3.2.1]octan-8-yl)benzoic acid] here?
**A.** 9.1 nM

**Q.** Which EC50 does the source give for `O=C(O)c1cc(F)c(-c2cccc3c2OCN(C(=O)c2c(Cl)cc(N4C[C@@H]5C[C@H]4CN5C4COC4)cc2Cl)C3)cc1N1C2CCC1COC2` [Compound 10-7, 4-[3-[2,6-Dichloro-4-[(1S,4S)-5-(oxetan-3-yl)-2,5-diazabicyclo[2.2.1]heptan-2-yl]benzoyl]-2,4-dihydro-1,3-benzoxazin-8-yl]-5-fluoro-2-(3-oxa-8-azabicyclo[3.2.1]octan-8-yl)benzoic acid] here?
**A.** 23 nM

**Q.** How did the EC50 turn out when `C[C@@H]1CN(c2cc(Cl)c(C(=O)N3COc4c(cccc4-c4cc(N5C6CCC5COC6)c(C(=O)O)cc4F)C3)c(Cl)c2)CCN1C1COC1` [Compound 10-8, 4-[3-[2,6-Dichloro-4-[(3R)-3-methyl-4-(oxetan-3-yl)piperazin-1-yl]benzoyl]-2,4-dihydro-1,3-benzoxazin-8-yl]-5-fluoro-2-(3-oxa-8-azabicyclo[3.2.1]octan-8-yl)benzoic acid] was run?
**A.** 1.5 nM

**Q.** `O=C(O)c1cc(F)c(-c2cccc3c2OCN(C(=O)c2c(Cl)cc(N4CCCN(C5COC5)CC4)cc2Cl)C3)cc1N1CCOCC1` [Compound 10-9, 4-[3-[2,6-Dichloro-4-[4-(oxetan-3-yl)-1,4-diazepan-1-yl]benzoyl]-2,4-dihydro-1,3-benzoxazin-8-yl]-5-fluoro-2-morpholin-4-ylbenzoic acid] was tested. Which EC50 did it give?
**A.** 1.2 nM

**Q.** With `CN1C[C@@H]2C[C@H]1CN2c1cc(Cl)c(C(=O)N2COc3c(cccc3-c3cc(N4C5CCC4COC5)c(C(=O)O)cc3F)C2)c(Cl)c1` [Compound 10-10, 4-[3-[2,6-Dichloro-4-[(1S,4S)-5-methyl-2,5-diazabicyclo[2.2.1]heptan-2-yl]benzoyl]-2,4-dihydro-1,3-benzoxazin-8-yl]-5-fluoro-2-(3-oxa-8-azabicyclo[3.2.1]octan-8-yl)benzoic acid] as the compound, how does the EC50 read?
**A.** 25 nM

**Q.** For `O=C(O)c1cc(F)c(-c2cccc3c2OCN(C(=O)c2c(Cl)cc(N4CC5(C4)CN(C4COC4)C5)cc2Cl)C3)cc1N1CCOCC1` [Compound 10-11, 4-[3-[2,6-Dichloro-4-[2-(oxetan-3-yl)-2,6-diazaspiro[3.3]heptan-6-yl]benzoyl]-2,4-dihydro-1,3-benzoxazin-8-yl]-5-fluoro-2-morpholin-4-ylbenzoic acid], which EC50 is on record?
**A.** 2.4 nM

**Q.** For `CN1CC2(C1)CN(c1cc(Cl)c(C(=O)N3COc4c(cccc4-c4cc(N5CCOCC5)c(C(=O)O)cc4F)C3)c(Cl)c1)C2` [Compound 10-12, 4-[3-[2,6-Dichloro-4-(6-methyl-2,6-diazaspiro[3.3]heptan-2-yl)benzoyl]-2,4-dihydro-1,3-benzoxazin-8-yl]-5-fluoro-2-morpholin-4-ylbenzoic acid], which EC50 is on record?
**A.** 1.2 nM

**Q.** With `CC(C)N1CCC(Oc2cc(Cl)c(C(=O)N3COc4c(cccc4-c4ccc(C(=O)O)c(N5CCOCC5)c4)C3)c(Cl)c2)CC1` [Compound 10-13, 4-[3-[2,6-Dichloro-4-(1-propan-2-ylpiperidin-4-yl)oxybenzoyl]-2,4-dihydro-1,3-benzoxazin-8-yl]-2-morpholin-4-ylbenzoic acid] as the compound, how does the EC50 read?
**A.** 4.2 nM

**Q.** With `COC1CN(C2CC3(C2)CN(c2cc(Cl)c(C(=O)N4COc5c(cccc5-c5cc(N6C7CCC6COC7)c(C(=O)O)cc5F)C4)c(Cl)c2)C3)C1` [Compound 11-1, 4-[3-[2,6-Dichloro-4-[6-(3-methoxyazetidin-1-yl)-2-azaspiro [3.3]heptan-2-yl]benzoyl]-2,4-dihydro-1,3-benzoxazin-8-yl]-5-fluoro-2-(3-oxa-8-azabicyclo [3.2.1]octan-8-yl)benzoic acid] as the compound, how does the EC50 read?
**A.** 3.6 nM

**Q.** Which EC50 does the source give for `COC1(C)CN(C2CN(c3cc(Cl)c(C(=O)N4COc5c(cccc5-c5cc(N6C7CCC6COC7)c(C(=O)O)cc5F)C4)c(Cl)c3)C2)C1` [Compound 11-2, 4-[3-[2,6-Dichloro-4-[3-(3-methoxy-3-methylazetidin-1-yl)azetidin-1-yl]benzoyl]-2,4-dihydro-1,3-benzoxazin-8-yl]-5-fluoro-2-(3-oxa-8-azabicyclo [3.2.1]octan-8-yl)benzoic acid] here?
**A.** 4.2 nM

**Q.** Which EC50 does the source give for `O=C(O)c1cc(F)c(-c2cccc3c2OCN(C(=O)c2c(Cl)cc(N4CC(n5cccn5)C4)cc2Cl)C3)cc1N1C2CCC1COC2` [Compound 11-3, 4-[3-[2,6-Dichloro-4-(3-pyrazol-1-ylazetidin-1-yl)benzoyl]-2,4-dihydro-1,3-benzoxazin-8-yl]-5-fluoro-2-(3-oxa-8-azabicyclo[3.2.1]octan-8-yl)benzoic acid] here?
**A.** 9.5 nM
